Laboratory results: patent publication US20140349948A1, “Treatment of Chronic Constipation” (Forest Laboratories Holdings Limited, priority 2009, published 2014)
Marks after values point to notes of the source that are not given here. Residues, ends and D or L forms follow the SMILES beside them.

Tests used:
[1] = tested on: patients with chronic constipation; assay: Trials 1 and 2 pooled; type: in vivo, human
Description: (§1) Linaclotide Capsules from Example 4 were administered in multicenter, randomized, double-blind, placebo-controlled trials.
(§2) Trial 1 was conducted in 630 patients meeting modified Rome II criteria for chronic constipation. The trial included a two-week pretreatment baseline period and a 12-week treatment period. A diagram of the study design for Trial 2 is given in FIG. 1, which is substantially similar to Trial 1 except for the addition of a Randomized Withdrawal period in Trial 2 as described below.
Trial 2 was conducted in 642 patients and was identical to Trial 1 except that Trial 2 also included a four-week Randomized Withdrawal Period, defined below. During the two-week pretreatment (baseline) period, 68 percent of patients in Trial 2 had no CSBMs.

[2] = tested on: patients meeting modified Rome II criteria for chronic constipation; assay: Chronic Constipation Trial 1, 12-week treatment period; type: in vivo, human; settings: for Straining, Week 1 Mean Change from Baseline / Abdominal discomfort, Week 1 Mean Change from Baseline / Bloating, Week 1 Mean Change from Baseline / Constipation severity, Week 1 Mean Change from Baseline: 5-point scale: 1 = none; for Straining, Week 1 Mean Change from Baseline: 5 = an extreme amount; for Abdominal discomfort, Week 1 Mean Change from Baseline / Bloating, Week 1 Mean Change from Baseline / Constipation severity, Week 1 Mean Change from Baseline: 5 = very severe; for Stool Consistency, Week 1 Mean Change from Baseline: 7-point scale (BSFS)
Description: as §1, §2
The Pretreatment Period is defined as the 14 to 21 calendar days immediately before starting the trial during which where patients provided information related to their daily bowel habits, daily assessment of the symptom severity, constipation severity, and use of other medicines, laxatives, suppositories, and/or enemas. Patients who satisfy the necessary criteria were entered into the Treatment Period. During the two-week pretreatment period, 72 percent of patients in Trial 1 had no CSBMs. A CSBM is an bowel movement that occurs in the absence of laxative, enema, or suppository usage within the preceding 24 hours that is accompanied by the patient self-reporting a feeling of complete emptying of the bowel.
The Treatment Period began with randomization and lasted for 12 weeks. Patients were randomized to treatment with 133 μg linaclotide, 266 μg linaclotide, or placebo (1:1:1), taken once daily in the morning. Patients continued to provide their daily assessments such as their daily bowel habit assessments and daily patient symptom severity assessments.

[3] = 266 μg, Pooled (n = 418), 5-point scale: 1 = none, 5 = very severe
[4] = Trial 1, 133 μg (p≦0.0001) and 266 μg (p≦0.0001)
[5] = Trial 1, 133 μg (p≦0.001) and 266 μg (p≦0.0001)

## C[C@@H]1NC(=O)[C@@H]2CCCN2C(=O)[C@H](CC(N)=O)NC(=O)[C@@H]2CSSC[C@H](N)C(=O)N[C@H]3CSSC[C@H](NC1=O)C(=O)N[C@@H]([C@@H](C)O)C(=O)NCC(=O)N[C@H](C(=O)N[C@@H](Cc1ccc(O)cc1)C(=O)O)CSSC[C@H](NC(=O)[C@H](Cc1ccc(O)cc1)NC(=O)[C@H](CCC(=O)O)NC3=O)C(=O)N2 [Linaclotide, Cys1 Cys2 Glu3 Tyr4 Cys5 Cys6 Asn7 Pro8 Ala9 Cys10 Thr11 Gly12 Cys13 Tyr14] (HELM PEPTIDE1{C.C.E.Y.C.C.N.P.A.C.T.G.C.Y}$PEPTIDE1,PEPTIDE1,1:R3-6:R3|PEPTIDE1,PEPTIDE1,2:R3-10:R3|PEPTIDE1,PEPTIDE1,5:R3-13:R3$$$V2.0)
[1]; 266 μg, Pooled (n = 418)
  SBM rate, Week 1 Mean Change from Baseline: 4.01***
[1]; 266 μg, Pooled (n = 418), 5-point scale: 1 = none, 5 = an extreme amount
  Straining, Week 1 Mean Change from Baseline: −1.14***
[1]; [3]
  Abdominal discomfort, Week 1 Mean Change from Baseline: −0.26***
  Bloating, Week 1 Mean Change from Baseline: −0.31***
  Constipation severity, Week 1 Mean Change from Baseline: −0.85***
[1]; 266 μg, Pooled (n = 418), 7-point scale (BSFS)
  Stool Consistency, Week 1 Mean Change from Baseline: 1.87***
[1]; both trial 1 and 2
  Overall rates of discontinuation due to adverse events: 7.4%
[1]; both trial 1 and 2, linaclotide-treated patients
  most common adverse events: diarrhea, flatulence, and abdominal pain
[2]; 133 μg, Trial 1 (n = 213)
  CSBM rate, Week 1 Mean Change from Baseline: 1.94***
  SBM rate, Week 1 Mean Change from Baseline: 4.09***
  Straining, Week 1 Mean Change from Baseline: −1.04***
  Abdominal discomfort, Week 1 Mean Change from Baseline: −0.27**
  Bloating, Week 1 Mean Change from Baseline: −0.31*
  Constipation severity, Week 1 Mean Change from Baseline: −0.78***
  Stool Consistency, Week 1 Mean Change from Baseline: 1.79***
[2]; 266 μg, Trial 1 (n = 202)
  CSBM rate, Week 1 Mean Change from Baseline: 2.63***
  SBM rate, Week 1 Mean Change from Baseline: 4.09***
  Straining, Week 1 Mean Change from Baseline: −1.10***
  Abdominal discomfort, Week 1 Mean Change from Baseline: −0.28***
  Bloating, Week 1 Mean Change from Baseline: −0.36***
  Constipation severity, Week 1 Mean Change from Baseline: −0.81***
  Stool Consistency, Week 1 Mean Change from Baseline: 1.96***
[2]; Trial 1, 133 μg
  12-week CSBM overall responder rate: 16.0%
  increase in average weekly CSBMs from baseline: 2.0
  increase in average weekly SBMs from baseline: 3.4
  numerical increase of 12-week CSBM overall responder rate as compared to placebo: 2.6 fold
  patients reporting at least one CSBM within 24 hours of treatment: 28.2%
  patients reporting at least one SBM within 24 hours of treatment: 64.3%
  patients with increase of ≧1 from baseline in weekly CSBMs in at least nine out of 12 weeks: 31.0%
  patients with increase of ≧1 from baseline in weekly CSBMs in at least six out of 12 weeks: 47.4%
  patients with ≧3 weekly CSBMs in at least nine out of 12 weeks: 16.0%
[2]; Trial 1, 266 μg
  12-week CSBM overall responder rate: 21.3%
  increase in average weekly CSBMs from baseline: 2.7
  increase in average weekly SBMs from baseline: 3.7
  numerical increase of 12-week CSBM overall responder rate as compared to placebo: 3.5 fold
  patients reporting at least one CSBM within 24 hours of treatment: 29.7%
  patients reporting at least one SBM within 24 hours of treatment: 60.4%
  patients with increase of ≧1 from baseline in weekly CSBMs in at least nine out of 12 weeks: 40.1%
  patients with increase of ≧1 from baseline in weekly CSBMs in at least six out of 12 weeks: 51.0%
  patients with ≧3 weekly CSBMs in at least nine out of 12 weeks: 21.8%
[2]; [4]
  PAC-QOL overall assessments, 12 week overall mean change versus placebo: statistically significant improvements
  PAC-QOL subscale score Physical Discomfort versus placebo: statistically significant improvements
  PAC-QOL subscale score Satisfaction versus placebo: statistically significant improvements
  PAC-QOL subscale score Worries/Concerns versus placebo: statistically significant improvements
  severity of straining score, 12 week overall mean change versus placebo: statistically significant improvements
  stool consistency score, 12 week overall mean change versus placebo: statistically significant improvements
[2]; [5]
  abdominal discomfort score, 12 week overall mean change versus placebo: statistically significant improvements
  bloating score, 12 week overall mean change versus placebo: statistically significant improvements
  constipation severity score, 12 week overall mean change versus placebo: statistically significant improvements
